This is an account of results in patent US6420570B1, “Psoralen compounds” (priority 1993, dated 2002).

Each structure is given as a SMILES string. Where a name gives a salt, the structure may show the parent alone. Some results are limits rather than exact numbers.

One series relates to TA1538. Put plainly: Ames assay, dark mutagenicity, strain TA1538. The procedure:
(§1) In this example the compounds of the present invention are tested for their dark mutagenicity using an Ames assay. The procedures used for the Salmonella mutagenicity test as described in detail by Maron and Ames were followed exactly. Maron, D. M. and B. N. Ames, Mutation Research 113:173 (1983). A brief description for each procedure is given here. The tester strains TA97a, TA98, TA100, TA102, TA1537 and TA1538 were obtained from Dr. Ames. TA97a, TA98, TA1537 and TA1538 are frameshift tester strains. TA100 and TA102 are base-substitution tester strains. Upon receipt each strain was cultured under a variety of conditions to confirm the genotypes specific to the strains.
(§2) The first tests done with the strains were to determine the range of spontaneous reversion for each of the strains. With each mutagenicity experiment the spontaneous reversion of the tester strains to histidine independence was measured and expressed as the number of spontaneous revertants per plate. This served as the background controls.
(§3) For all experiments, the pre-incubation procedure was used. In this procedure one vial of each tester strain was thawed and 20 μL of this culture was added to 6 mL of Oxoid Nutrient Broth #2. This solution was allowed to shake for 10 hours at 37° C. In the pre-incubation procedure, 0.1 mL of this overnight culture was added to each of the required number of sterile test tubes. To half of the tubes 0.5 mL of a 10% S-9 solution containing Aroclor 1254 induced rat liver extract (Molecular Toxicology Inc., Annapolis, MD), and MgCl2, KCl, glucose-6-phosphate, NADP, and sodium phosphate buffer (Sigma, St. Louis. Mo.) were added. To the other half of the tubes 0.5 mL of 0.2M sodium phospate buffer, pH 7.4, was used in place of the S-9 mixture (the -S9 samples) Finally 0.1 mL of the test solution containing either 0.0.1, 0.5, 1, 5, 10, 50, 100, 250, or 500 μg/mL of the test compound was added. The 0.7 mL mixture pre-incubated while shaking for 20 minutes at 37° C. After shaking, 2 mL of molten top agar supplemented with histidine and biotin were added to the 0.7 mL mixture and immediately poured onto a minimal glucose agar plate (volume of base agar was 20 ml.). The top agar was allowed 30 minutes to solidify and then the plates were inverted and incubated for 44 hours at 37° C. After incubation the number of revertant colonies on each plate were counted. […] (“n” represents the number of replicates performed for each data point.)
(§4) Maron and Ames (1983) describe the conflicting views with regard to the statistical treatment of data generated from the test.
Background: The Ames test detects mutagens through reverse mutation in bacteria.

For another series, the system named is cell-free virus (HIV). Format: cell-based.
Series [1] has as its system Salmonella tester strains. Put plainly: Ames assay, dark mutagenicity, overall over tester strains. The following applies: for mutagenicity as defined by the Ames test: two-fold or greater increase in revertants above background and dose dependent response. On the procedure:
as §1, §2, §3, §4

The next series relates to DNA. The conditions noted are these: photoactivated binding; NCI Monograph 66:21 (1984); cited from earlier work.
The test system of series [2] is Duck Hepatitis B Virus (DHBV). Put plainly: Inactivation of Duck Hepatitis B Virus in platelet concentrate, PCR amplification read-out. The following applies: 5 J/CM^2 UVA. On the procedure:
This example describes the protocol for inactivation of another virus, Duck Hepatitis B Virus (DHBV), using compounds of the present invention. DHBV in duck yolk was added to platelet concentrate (PC) to a final concentration of 2×10^7 particles per mL and mixed by gentle rocking for ≧15 min. […] Samples, including controls without added psoralen, were irradiated with 5 J/CM^2 UVA, with mixing at 1 J/cm^2 increments. After irradiation, leukocytes and platelets were separated from virus by centrifugation. […] Samples were extracted with phenolchloroform and chloroform, followed by ethanol precipitation. […] PCR amplicons were generated using primers pairs DCD03/DCD05 (127 bp), DCD03/DCD06 (327 bp) and DCD03/DCD07 (1072 bp). PCR was performed in a standard PCR buffer containing 0.2 mM each deoxyribonucleoside 5′-triphosphates (dATP, dGTP, dCTP, and dTTP), 0.5 […], and 0.5 units Taq polymerase per […]. 30 cycles of amplification were performed with the following thermal profile: 95° C. 30 sec, 60° C. 30 sec, 72° C. 1 min. The amplification was followed by a 7 min incubation at 72° C. to yield full length products. [[…]-^32P] dCTP was added at an amount of […] in order to detect and quantify the resulting products. Products were separated by electrophoresis on denaturing polyacrylamide slab gels and counted. The absence of signal in a given reaction was taken to indicate effective inactivation of DHBV.

The subject of a further series is TA1537. Put plainly: Ames assay, dark mutagenicity, strain TA1537. On the procedure:
as §1, §2, §3, §4

In another series the test system is R17. Put plainly: R17 bacteriophage inactivation screen, varying compound concentration. The format is cell-based. The following applies: for R17 Log Kill 8 uM / R17 Log Kill 16 uM / R17 Log Kill 32 uM: Table 5, starting titer approx. 7.2 logs. On the procedure:
The assay used to predict pathogen inactivation efficiency and to determine nucleic acid binding of the photoreactive binding compounds of the present invention was that in which a bacteriophage, R17, in solution with the desired substrate was irradiated. The ability of the phage to subsequently infect bacteria and inhibit their growth was measured. The bacteriophage was selected for its relatively accessible nucleic acid such that the culture growth inhibition would accurately reflect nucleic acid damage by the test compounds. The bacteriophage assay for nucleic acid binding to test compounds offers a safe and inexpensive procedure to identify compounds likely to display efficient pathogen inactivation. […] An aliquot (0.5 mL) was transferred to a 1.5 mL, snap-top polyethylene tube. An aliquot (0.004-0.040 mL) of the test compound stock solution prepared in water, ethanol or dimethylsulfoxide at 0.80-8.0 mM was added to the tube. Compounds were tested at concentrations between 4 μM and 320 μM. (AMT is commercially available from HRI, Inc., Concord, Calif.; 8-MOP is commercially available from Sigma, St. Louis, Mo.). The tubes were placed in a light device as described in EXAMPLE 1 and irradiated for between 1 and 10 minutes. […] To make the dilutions, a 0.100 mL aliquot of the irradiated solution of phage and test compound was added to the first dilution tube of 0.4 mL of media then 0.020 mL of this solution was added to the second tube of 0.5 mL medium (1:25). The second solution was then diluted serially (1:25) into the remaining tubes. […] After the top agar hardened, the plates were incubated at 37° C. overnight. The plaque forming units were then counted the following morning and the titer of the phage remaining after phototreatment was calculated based on the dilution factors. The following controls were run: the “phage only” in which phage was not treated with test compound and not irradiated (listed as “starting titer” in the tables below); the “UV only” in which the phage was irradiated in the absence of test compound; and the “dark” control in which the phage/test compound solution was not irradiated before it was diluted and plated.

A further series concerns TA102. Put plainly: Ames assay, dark mutagenicity, strain TA102. On the procedure: as §1, §2
For all experiments, the pre-incubation procedure was used. In this procedure one vial of each tester strain was thawed and 20 μL of this culture was added to 6 mL of Oxoid Nutrient Broth #2. This solution was allowed to shake for 10 hours at 37° C. […] After incubation the number of revertant colonies on each plate were counted. […]

Setting [3] is: Table 6, 1 minute irradiation = 1.2 J/cm^2, starting titer approx. 7.1 logs.
The mark [4] stands for this setting: Table 7, 1 minute irradiation, starting titer approx. 7.1 logs.
The mark [5] stands for this setting: Table 8, 1 minute irradiation, HIV starting titer approximately 5 logs.

Description for cell-free virus (HIV): Pathogen inactivation efficiency of several compounds of the present invention was evaluated by examining the ability of the compounds to inactivate cell-free virus (HIV). Inactivation of cell-free HIV was performed as follows.
As in the R17 assay, small aliquots of the compounds listed in TABLES 8 and 9, below, at the concentrations listed in the table, were added to stock HIV-1 to a total of 0.5 mL. The stock HIV (10^5-10^7 plaque forming units/mL) was in DMEM/15% FBS. […] Controls included HIV-1 stock only, HIV-1 plus UVA only, and HIV-1 plus the highest concentration of each psoralen tested, with no UVA. Post irradiation, all samples were stores frozen at −70° C. until assayed for infectivity by a microtiter plaque assay. Aliquots for measurement of residual HIV infectivity in the samples treated with a compound of the present invention were withdrawn and cultured.
Residual HIV infectivity was assayed using an MT-2 infectivity assay. […] The assay medium was 85% DMEM (with a high glucose concentration) containing 100 μg of streptomycin, 100 U of penicillin, 50 μg of gentamicin, and 1 μg of amphotericin B per mL, 15% FBS and 2 μg of Polybrene (Sigma Chemical Co., St. Louis, Mo.) per mL. Test and control samples from the inactivation procedure were diluted in 50% assay medium and 50% normal human pooled plasma. The samples were serially diluted directly in 96-well plates (Corning Glass Works, corning, N.Y.). The plates were mixed on an oscillatory shaker for 30 seconds and incubated at 37° C. in a 5% CO2 atmosphere for 1 to 18 hours. […] After an additional 1 hour of incubation at 37° C. in 5% CO2, 0.075 mL of assay medium containing 1.6% SeaPlaque agarose (FMC Bioproducts, Rockland, me.) and prewarmed to 38.5° C. was added to each well. The plates were kept at 37° C. for a few minutes until several plates had accumulated and then centrifuged in plate carriers at 600×g for 20 minutes in a centrifuge precooled to 10° C. In the centrifuge, cell monolayers formed prior to gelling of the agarose layer. The plates were incubated for 5 days at 37° C. in 5% CO2 and stained by the addition of 0.05 mL of 50 μg/mL propidium iodide (Sigma Chemical Co.) in phosphate-buffered saline (pH 7.4) to each well. After 24 to 48 hours, the red fluorescence-stained microplaques were visualized by placing the plates on an 8,000 μW/cm^2 304 nm UV light box (Fotodyne, Inc., New Berlin, Wis.). The plaques were counted at a magnification of ×20 to ×25 through a stereomicroscope. “n” represents the number of runs for which the data point is an average.

For orientation: melting point means the temperature of the solid-liquid transition. Consider `Cc1oc2c(C)c3oc(=O)cc(C)c3cc2c1CNCCN` (as salt: hydrochloride) [Compound 1, 4′-(4-amino-2-aza)butyl-4,5′,8-trimethylpsoralen dihydrochloride], for which the melting point was 320 to 322 °C (dec.).
Still for that read-out and setting: the value for `Cc1oc2c(C)c3oc(=O)cc(C)c3cc2c1CNCCCN` (as salt: hydrochloride) [Compound 5, 4′-(5-amino-2-aza)pentyl-4,5′,8-trimethylpsoralen dihydrochloride] was 288 °C (dec.).
Take `Cc1oc2c(C)c3oc(=O)cc(C)c3cc2c1CN` [AMT, 4′-Aminomethyl-4,5′,8-trimethylpsoralen, reference compound]: the entries for the “dose at which frameshift mutagenicity was shown” value in the series with TA1538 (TA1538) and in the series with TA1537 (TA1537) were 1 μg/plate and 5 μg/plate, respectively. In addition, the “revertant colonies per plate” value was 13 in the series with TA1538 (TA1538 +S9, 0.5 μg/plate); 37 in the series with TA1538 (TA1538 +S9, 1 μg/plate); 177 in the series with TA1538 (TA1538 +S9, 5 μg/plate); 255 in the series with TA1538 (TA1538 +S9, 10 μg/plate); 4 in the series with TA1538 (TA1538 −S9, 0.5 μg/plate); 4 in the series on TA1538 (TA1538 −S9, 1 μg/plate). Further, the “revertant colonies per plate” value in the series with TA1538 (TA1538 −S9, 5 μg/plate) is recorded as 13; in the series on TA1537 (TA1537 −S9, 100 μg/plate) it was 2058. In the series on cell-free virus (HIV) (Table 8, 16 μM, 1 minute irradiation, HIV starting titer approximately 5 logs), the “HIV Log Kill 16 μM” value was 1.4 log. In [1] (base-substitution tester strains TA100 and TA102), the base-substitution mutagenicity result was “no significant base-substitution mutations”. For the same molecule, the “concentration at which mutagenicity was displayed” value in series [1] (comparison with Compound 6) was determined as 5 μg/plate. Moreover, the “DNA base pairs per adduct (up to 1 AMT adduct per)” value with DNA is recorded as 3.5 DNA base pairs. For the same molecule, the “PCR amplification of the 1072 bp amplicon” value is listed as “a signal could be detected” in series [2] (platelet concentrate); “inhibited PCR amplification” in series [2] (70 and 100 mM levels, platelet concentrate). Also, the “R17 Log Kill 8 uM” value in the series with R17 (8 uM, 1 minute irradiation) is on record as 2.7 log. In addition, the “R17 Log Kill 16 uM” value with R17 (1 minute irradiation) was determined as 4.6 log. The “R17 Log Kill 32 uM” value with R17 (1 minute irradiation) is on record as over 6.2 log. Further, the results for the “R17 log kill 16 uM” value with R17 (setting [3]) and in the series with R17 (setting [4]) were 4.5 log and over 6 log, respectively. Moreover, the “R17 log kill 32 uM” value with R17 (setting [3]) is listed as 4.8 log; in the series on R17 (setting [4]), over 6 log.
In the case of `Cc1oc2c(C)c3oc(=O)cc(C)c3cc2c1CCN` [Compound 3, 4′-(2-aminoethyl)-4,5′,8-trimethylpsoralen Hydrochloride], in the series with cell-free virus (HIV) (setting [5]), the “HIV Log Kill 32 μM” value came to 2.7 log and the “HIV Log Kill 64 μM” value is given as over 3.8 log. Further, in the series on cell-free virus (HIV) (concentrations of 64 μM of compound or higher), the “HIV inactivation activity compared with AMT” value is “significantly more active than AMT”. Further, in series [1], the “mutagenicity as defined by the Ames test” value was “no mutagenicity”. For the same molecule, the “R17 Log Kill 8 uM” value in the series on R17 (8 uM, 1 minute irradiation) is given as over 6.2 log. In the series on R17 (1 minute irradiation), the “R17 Log Kill 16 uM” value is given as over 6.2 log and the “R17 Log Kill 32 uM” value is given as over 6.2 log. The “R17 log kill 8 uM” value in the series on R17 (Table 6, 8 uM, 1 minute irradiation = 1.2 J/cm^2, starting titer approx. 7.1 logs) is recorded as 5.6 log. In the series with R17 (setting [3]), the “R17 log kill 16 uM” value was over 6.1 log.
For `Cc1oc2c(C)c3oc(=O)cc(C)c3cc2c1COCCCN` [Compound 4, 4′-(5-amino-2-oxa)pentyl-4,5′,8-trimethylpsoralen], in the series with cell-free virus (HIV) (setting [5]), the “HIV Log Kill 32 μM” value came to 2.2 log and the “HIV Log Kill 64 μM” value was over 3.6 log. In addition, in [1], the “mutagenicity as defined by the Ames test” value is “no mutagenicity”. Besides, in the series with R17 (setting [3]), the “R17 log kill 16 uM” value amounted to 2.3 log and the “R17 log kill 32 uM” value is reported as 4.3 log. Moreover, the “R17 log kill 64 uM” value in the series with R17 (Table 6, 64 uM, 1 minute irradiation = 1.2 J/cm^2, starting titer approx. 7.1 logs) is given as over 6.1 log.
Regarding `COc1c2occc2cc2ccc(=O)oc12` [Compound 8-MOP, 8-Methoxypsoralen], the “dose at which the only mutagenic response (weak base-substitution mutagen) was detected” value in the series on TA102 (TA102) amounted to 500 μg/plate.
Take `Cc1oc2c(C)c3oc(=O)cc(C)c3cc2c1COCCN` [Compound S-59]: the “PCR of the smaller amplicons compared with AMT” value in series [2] (127 bp and 327 bp amplicons, same concentrations) was “inhibited PCR of the smaller amplicons better than did AMT”. Besides, the “PCR of the 1072 bp amplicon” value in series [2] (all concentrations (35, 70, and 100 mM), platelet concentrate) is “complete inhibition of PCR”.
Regarding `OO` [hydrogen peroxide], the “revertant colonies per plate, positive control” value with TA102 (Salmonella typhimurium, 44 h, 100 μg/plt, pH 7.4) was 660.
